Assay results: ChEMBL document CHEMBL4138253, “Synthesis and Biological Evaluation of a Series of Bile Acid Derivatives as FXR Agonists for Treatment of NASH” (ACS Med Chem Lett, 2017)
Each block holds one compound with its values, some of them ahead of it.

Key:
[1] = target: T1, Bile acid receptor (Homo sapiens) (UniProt Q96RI1); assay: (§1) Agonist activity at human FXR assessed as recruitment of SRC1 peptide by TR-FRET assay
T1 sequence (whole entry): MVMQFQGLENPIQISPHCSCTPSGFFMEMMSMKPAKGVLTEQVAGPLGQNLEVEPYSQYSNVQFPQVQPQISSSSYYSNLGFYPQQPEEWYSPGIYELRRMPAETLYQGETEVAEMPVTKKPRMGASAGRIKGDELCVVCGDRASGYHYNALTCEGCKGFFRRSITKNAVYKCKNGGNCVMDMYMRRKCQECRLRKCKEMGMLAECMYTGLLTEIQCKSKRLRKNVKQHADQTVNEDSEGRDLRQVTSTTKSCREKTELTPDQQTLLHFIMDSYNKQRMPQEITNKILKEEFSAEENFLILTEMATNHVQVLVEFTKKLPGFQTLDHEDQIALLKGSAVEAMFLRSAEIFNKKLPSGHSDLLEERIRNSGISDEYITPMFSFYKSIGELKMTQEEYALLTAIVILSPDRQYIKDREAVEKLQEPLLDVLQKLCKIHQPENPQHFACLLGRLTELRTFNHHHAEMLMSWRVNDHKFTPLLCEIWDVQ

Bile acid receptor [2] = target: T2, Bile acid receptor (Homo sapiens, UniProt Q96RI1); assay: as §1
T2 sequence (Q96RI1 whole entry): T1 sequence (whole entry)

[3] = Ratio of drug level in liver to plasma in C57BL/6 mouse at 2 mg/kg, po administered as single cassette dose via gavage measured at 3 hrs post dose; assay type: ADME, organism-based
[4] = Ratio of drug level in liver to plasma in C57BL/6 mouse at 2 mg/kg, po administered as single cassette dose via gavage measured at 0.5 hrs post dose; assay type: ADME, organism-based
[5] = target: T3, G-protein coupled bile acid receptor 1 (Homo sapiens, UniProt Q8TDU6); assay: Agonist activity at human TGR5 expressed in HEK293 cells assessed as increase in intracellular cAMP level after 1 hr by TR-FRET assay; assay type: functional, cell-based
T3 sequence (Q8TDU6 whole entry): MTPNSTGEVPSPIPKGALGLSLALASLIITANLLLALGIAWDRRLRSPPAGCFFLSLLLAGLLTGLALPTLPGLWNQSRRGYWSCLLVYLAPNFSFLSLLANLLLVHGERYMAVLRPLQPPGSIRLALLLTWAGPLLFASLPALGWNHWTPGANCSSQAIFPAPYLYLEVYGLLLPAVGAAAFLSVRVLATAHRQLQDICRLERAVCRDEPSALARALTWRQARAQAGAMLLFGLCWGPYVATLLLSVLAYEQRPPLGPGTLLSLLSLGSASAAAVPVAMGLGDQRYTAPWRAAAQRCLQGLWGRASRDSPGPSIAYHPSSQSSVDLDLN

[6] = Cmax in C57BL/6 mouse at 10 mg/kg, po administered via gavage; assay type: ADME, organism-based; parameters: dose 10 mg/kg, route oral; details: in vivo
Homo sapiens = species on record: Homo sapiens; assay: Selectivity ratio of EC50 for recombinant human GST-tagged FXR LBD (193 to 472 residues) expressed in baculovirus-infected insect cells to EC50 for human TGR5 expressed in HEK293 cells
Mus musculus [7] = assay: Anti-hepatic steatosis activity in HFD/CCl4-induced non-alcoholic hepatic steatosis C57BL/6 mouse model assessed as reduction in hepatic steatosis score administered once daily via oral gavage for 28 days measured at post last dose by hematoxylin-eosin staining based assay; assay type: ADME, organism-based; details: in vivo, 672 h
[8] = Ratio of drug level in C57BL/6 mouse liver to plasma at 10 mg/kg, po administered as single dose via gavage measured at 3 hrs post dose by LC-MS/MS analysis; assay type: ADME, organism-based
[9] = target: T1, Bile acid receptor (Homo sapiens); assay: Agonist activity at recombinant human Gal4-fused FXR expressed in CHO cells measured after 22 hrs by luciferase reporter gene assay relative to CDCA; assay type: cell-based
Bile acid receptor [10] = target: T2, Bile acid receptor; assay: Agonist activity at recombinant human Gal4-fused FXR expressed in CHO cells measured after 22 hrs by luciferase reporter gene assay; assay type: cell-based
Mus musculus [11] = assay: Tmax in C57BL/6 mouse assessed as tauro-INT-747 level at 10 mg/kg, po administered via gavage; assay type: ADME, organism-based; details: in vivo
Mus musculus [12] = assay: Anti-hepatic steatosis activity in HFD/CCl4-induced non-alcoholic hepatic steatosis C57BL/6 mouse model assessed as reduction in triglyceride level administered once daily via oral gavage for 28 days measured at post last dose by […] assay; assay type: ADME, organism-based; details: in vivo, 672 h
[13] = Tmax in C57BL/6 mouse at 10 mg/kg, po administered via gavage; assay type: ADME, organism-based; details: in vivo
[14] = Drug metabolism in C57BL/6 mouse assessed as ratio of INT-747 level in liver to plasma at 10 mg/kg, po administered as single dose via gavage measured at 3 hrs post dose by LC-MS/MS analysis; assay type: ADME, organism-based; details: other tissue
Mus musculus [15] = assay: Cmax in C57BL/6 mouse assessed as INT-747 level at 10 mg/kg, po administered via gavage; assay type: ADME, organism-based; parameters: dose 10 mg/kg, route oral; details: in vivo
Mus musculus [16] = assay: Cmax in C57BL/6 mouse assessed as tauro-INT-747 level at 10 mg/kg, po administered via gavage; assay type: ADME, organism-based; parameters: dose 10 mg/kg, route oral; details: in vivo
[17] = Drug level in C57BL/6 mouse plasma at 2 mg/kg, po administered as single cassette dose via gavage measured at 3 hrs post dose by LC-MS/MS analysis; assay type: ADME, organism-based
[18] = Drug metabolism in C57BL/6 mouse liver assessed as INT-747 level at 10 mg/kg, po administered as single dose via gavage measured at 0.5 hrs post dose by LC-MS/MS analysis; assay type: ADME, organism-based; details: in vivo
[19] = Drug level in C57BL/6 mouse liver at 10 mg/kg, po administered as single dose via gavage measured at 3 hrs post dose by LC-MS/MS analysis; assay type: ADME, organism-based; details: in vivo
[20] = Drug metabolism in C57BL/6 mouse liver assessed as INT-747 level at 10 mg/kg, po administered as single dose via gavage measured at 3 hrs post dose by LC-MS/MS analysis; assay type: ADME, organism-based; details: in vivo
Mus musculus [21] = assay: Anti-hepatic steatosis activity in HFD/CCl4-induced non-alcoholic hepatic steatosis C57BL/6 mouse model assessed as reduction in liver fibrosis administered once daily via oral gavage for 28 days measured at post last dose by sirus red staining based assay; assay type: ADME, organism-based; details: in vivo, 672 h
Mus musculus [22] = assay: Cmax in C57BL/6 mouse assessed as glyco-INT-747 level at 10 mg/kg, po administered via gavage; assay type: ADME, organism-based; parameters: dose 10 mg/kg, route oral; details: in vivo, BLD = below limit of detection
[23] = Drug level in C57BL/6 mouse plasma at 2 mg/kg, po administered as single dose via gavage measured at 0.5 hrs post dose by LC-MS/MS analysis; assay type: ADME, organism-based
[24] = AUC in C57BL/6 mouse at 10 mg/kg, po administered via gavage; assay type: ADME, organism-based; details: in vivo
[25] = Drug level in C57BL/6 mouse liver at 2 mg/kg, po administered as single cassette dose via gavage measured at 0.5 hrs post dose by LC-MS/MS analysis; assay type: ADME, organism-based; details: in vivo
[26] = Drug level in C57BL/6 mouse plasma at 10 mg/kg, po administered as single dose via gavage measured at 0.5 hrs post dose by LC-MS/MS analysis; assay type: ADME, organism-based
[27] = Drug metabolism in C57BL/6 mouse plasma assessed as INT-747 level at 10 mg/kg, po administered as single dose via gavage measured at 3 hrs post dose by LC-MS/MS analysis; assay type: ADME, organism-based; details: in vivo
Mus musculus [28] = assay: Tmax in C57BL/6 mouse assessed as INT-747 level at 10 mg/kg, po administered via gavage; assay type: ADME, organism-based; details: in vivo
Mus musculus [29] = assay: AUC in C57BL/6 mouse assessed as tauro-INT-747 level at 10 mg/kg, po administered via gavage; assay type: ADME, organism-based; details: in vivo
[30] = Drug metabolism in C57BL/6 mouse assessed as ratio of INT-747 level in liver to plasma at 10 mg/kg, po administered as single dose via gavage measured at 0.5 hrs post dose by LC-MS/MS analysis; assay type: ADME, organism-based; details: other tissue
[31] = Drug level in C57BL/6 mouse plasma at 10 mg/kg, po administered as single dose via gavage measured at 3 hrs post dose by LC-MS/MS analysis; assay type: ADME, organism-based
[32] = Drug level in C57BL/6 mouse liver at 2 mg/kg, po administered as single cassette dose via gavage measured at 3 hrs post dose by LC-MS/MS analysis; assay type: ADME, organism-based; details: in vivo
Mus musculus [33] = assay: AUC in C57BL/6 mouse assessed as glyco-INT-747 level at 10 mg/kg, po administered via gavage; assay type: ADME, organism-based; details: in vivo, BLD = below limit of detection
Mus musculus [34] = assay: AUC in C57BL/6 mouse assessed as INT-747 level at 10 mg/kg, po administered via gavage; assay type: ADME, organism-based; details: in vivo
[35] = Ratio of drug level in C57BL/6 mouse liver to plasma at 10 mg/kg, po administered as single dose via gavage measured at 0.5 hrs post dose by LC-MS/MS analysis; assay type: ADME, organism-based
[36] = Drug level in C57BL/6 mouse liver at 10 mg/kg, po administered as single dose via gavage measured at 0.5 hrs post dose by LC-MS/MS analysis; assay type: ADME, organism-based; details: in vivo
Bile acid receptor [37] = target: T2, Bile acid receptor; assay: Agonist activity at recombinant human GST-tagged FXR LBD (193 to 472 residues) expressed in baculovirus-infected insect cells assessed as recruitment of biotinylated SRC1 peptide measured after 1 hr by Alphascreen assay
[38] = target: T1, Bile acid receptor (Homo sapiens); assay: Agonist activity at recombinant human GST-tagged FXR LBD (193 to 472 residues) expressed in baculovirus-infected insect cells assessed as recruitment of biotinylated SRC1 peptide measured after 1 hr by Alphascreen assay relative to CDCA

Efficacy [1]: 111% | EC50 (Bile acid receptor [2]): 1220 nM
Compound: C[C@H](CCn1oc(=O)[nH]c1=O)[C@H]1CC[C@H]2[C@@H]3[C@H](O)C[C@@H]4C[C@H](O)CC[C@]4(C)[C@H]3CC[C@]12C

Compound: CC[C@H]1[C@@H](O)[C@@H]2[C@H](CC[C@]3(C)[C@@H]([C@H](C)CCC(=O)NS(C)(=O)=O)CC[C@@H]23)[C@@]2(C)CC[C@@H](O)C[C@@H]12
Kp at 3 h [3]: 124 | Kp at 0.5 h [4]: 53 | EC50 [5]: 700 nM | Cmax [6]: 610 nM | Ratio EC50 (Homo sapiens): 14 | Activity (Mus musculus [7]): Dose-dependent effect | Kp at 3 h [8]: 52 | Efficacy [9]: 191% | EC50 (Bile acid receptor [10]): 50 nM | Tmax (Mus musculus [11]): 8 h | Activity (Mus musculus [12]): Dose-dependent effect | Tmax [13]: 30 min | Ratio [14]: 12 | Cmax (Mus musculus [15]): 446 nM | Cmax (Mus musculus [16]): 270 nM | concentration at 3 h [17]: 15 nM | Drug uptake [18]: 2863 nmol/kg | Drug uptake [19]: 15560 nmol/kg | Drug uptake [20]: 1486 nmol/kg | Activity (Mus musculus [21]): Dose-dependent effect | Cmax (Mus musculus [22]): Bld | concentration at 0.5 h [23]: 136 nM | AUC [24]: 1.19 µM·h | Drug uptake [25]: 7183 nmol/kg | concentration at 0.5 h [26]: 388 nM | concentration [27]: 126 nM | Tmax (Mus musculus [28]): 30 min | AUC (Mus musculus [29]): 5.416 µM·h | Ratio [30]: 21 | concentration at 3 h [31]: 298 nM | Drug uptake [32]: 1361 nmol/kg | AUC (Mus musculus [33]): Bld | AUC (Mus musculus [34]): 216 nM·h | Kp at 0.5 h [35]: 53 | Drug uptake [36]: 27920 nmol/kg

Kp at 3 h [3]: 36 | Kp at 0.5 h [4]: 13 | EC50 (Bile acid receptor [37]): 20 nM | EC50 [5]: 240 nM | Efficacy [38]: 109% | concentration at 3 h [17]: 38 nM | concentration at 0.5 h [23]: 21 nM | Drug uptake [25]: 277 nmol/kg | Drug uptake [32]: 1363 nmol/kg
Compound: CC[C@H]1[C@@H](O)[C@@H]2[C@H](CC[C@]3(C)[C@@H]([C@H](C)CCNC(=O)C(=O)O)CC[C@@H]23)[C@@]2(C)CC[C@@H](O)C[C@@H]12
Ratio EC50 (Homo sapiens): 12
